Data as given in ChEMBL document CHEMBL1152019, “A series of conformationally and sterically constrained analogs of N-phenyl-N-aralkylurea ACAT inhibitors” (Bioorg Med Chem Lett, 1995).
pIC50: −log10 of the molar value. Active and inactive are the calls of the source. No cut-off for these calls is given here.

How the values were obtained:
O-acyltransferase = O-acyltransferase (Oryctolagus cuniculus, UniProt G1SFD9); assay: In vitro inhibitory activity against ACAT was determined in rabbit intestinal microsome from cholesterol-fed animals; assay type: microsomes, Intestine
O-acyltransferase, sequence (G1SFD9 1-524): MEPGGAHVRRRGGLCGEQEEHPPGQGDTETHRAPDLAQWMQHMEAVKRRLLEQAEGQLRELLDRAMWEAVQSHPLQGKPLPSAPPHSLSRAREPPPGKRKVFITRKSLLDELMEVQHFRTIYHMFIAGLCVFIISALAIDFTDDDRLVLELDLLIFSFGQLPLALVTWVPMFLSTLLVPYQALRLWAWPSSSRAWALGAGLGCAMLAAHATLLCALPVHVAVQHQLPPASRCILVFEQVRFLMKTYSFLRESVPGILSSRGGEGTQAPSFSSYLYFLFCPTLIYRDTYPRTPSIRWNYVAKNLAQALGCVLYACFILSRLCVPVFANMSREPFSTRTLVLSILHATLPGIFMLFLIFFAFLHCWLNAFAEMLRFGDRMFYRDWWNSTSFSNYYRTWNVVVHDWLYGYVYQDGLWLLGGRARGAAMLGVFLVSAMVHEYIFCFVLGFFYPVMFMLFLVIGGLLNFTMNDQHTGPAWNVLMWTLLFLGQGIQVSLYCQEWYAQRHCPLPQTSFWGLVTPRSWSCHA

Rattus norvegicus [1] = assay: In vivo percent change of total cholesterol compared to control at a dose 30 mg/Kg in rats fed with cholic acid (0.5%), cholesterol (1.5%) and peanut oil (5.5%).; assay type: functional
Rattus norvegicus [2] = assay: Compound was evaluated in vivo for percent change of total cholesterol compared to control at a dose 30 mg/Kg in rats fed with cholic acid (0.5%), cholesterol (1.5%) and peanut oil (5.5%); No change; assay type: functional, organism-based

| Compound | pIC50 (O-acyltransferase) | Change (Rattus norvegicus [1]) | Change (Rattus norvegicus [2]) |
| --- | --- | --- | --- |
| CC(C)c1cccc(C(C)C)c1NC(=O)NOC(c1ccccc1)c1ccccc1 |  | -67% |  |
| CC(C)c1cccc(C(C)C)c1NC(=O)NCC1c2ccccc2-c2ccccc21 |  | -41% |  |
| CC(C)c1cccc(C(C)C)c1NC(=O)NCCc1ccccc1 |  | -16% |  |
| CC(C)c1cccc(C(C)C)c1NC(=O)NCCc1cccc2ccccc12 |  | -32% |  |
| CC(C)c1cccc(C(C)C)c1NC(=O)NCCc1ccc2ccccc2c1 |  | -54% |  |
| CC(C)c1cccc(C(C)C)c1NC(=O)NOCc1cccc2ccccc12 |  | -32% |  |
| CC(C)c1cccc(C(C)C)c1NC(=O)NCC(c1ccccc1)c1ccccc1 |  | -73% |  |
| CC(C)c1cccc(C(C)C)c1NC(=O)NCC1(c2ccccc2)CCCC1 |  | -70% |  |
| CC(C)c1cccc(C(C)C)c1NC(=O)NC1CCCc2ccccc21 (stereo unspecified) |  |  | inactive |
| CC(C)c1cccc(C(C)C)c1NC(=O)NCC1(c2ccc(N(C)C)cc2)CCCC1 [NEVANIMIBE] |  | -76% |  |
| COc1cccc2c1CCC(NC(=O)Nc1c(C(C)C)cccc1C(C)C)C2 (stereo unspecified) | 7.77 | -39% |  |
| CC(C)c1cccc(C(C)C)c1NC(=O)NOC(c1ccccc1)(c1ccccc1)c1ccccc1 |  | -30% |  |

More lines, main results first:

| pIC50 (O-acyltransferase) | Compound | Change (Rattus norvegicus [1]) | Change (Rattus norvegicus [2]) |
| --- | --- | --- | --- |
| 7.02 | CC(C)c1cccc(C(C)C)c1NC(=O)NC1Cc2ccccc2C1 | -8% |  |
| 7.44 | CC(C)c1cccc(C(C)C)c1NC(=O)NCC1CCCc2ccccc21 (stereo unspecified) | -47% |  |
| 7.47 | CC(C)c1cccc(C(C)C)c1NC(=O)NCc1cccc2ccccc12 | -53% |  |
| 6.09 | CC(C)c1cccc(C(C)C)c1NC(=O)NCC1(O)CCc2ccccc21 (stereo unspecified) |  | inactive |
| 7.51 | CC(C)c1cccc(C(C)C)c1NC(=O)NC1CCc2ccccc2C12CCCC2 (stereo unspecified) | -49% |  |
| 6.04 | CC(C)c1cccc(C(C)C)c1NC(=O)NC1CCc2ccccc21 (stereo unspecified) |  | inactive |
| 6.96 | CC(C)c1cccc(C(C)C)c1NC(=O)NC1COc2ccccc2C1 (stereo unspecified) | -20% |  |
| 7.20 | CC(C)c1cccc(C(C)C)c1NC(=O)NC1CCc2ccccc2C1 (stereo unspecified) | -26% |  |
| 7.38 | CC(C)c1cccc(C(C)C)c1NC(=O)NCC1c2ccccc2Oc2ccccc21 | -25% |  |
| 7.57 | CC(C)c1cccc(C(C)C)c1NC(=O)NCC1CCc2ccccc21 (stereo unspecified) | -49% |  |
| 7.57 | CC(C)c1cccc(C(C)C)c1NC(=O)NCC1(c2ccccc2)Cc2ccccc2C1 | -67% |  |
| 6.46 | CC(C)c1cccc(C(C)C)c1NC(=O)NCC1(O)CCCc2ccccc21 (stereo unspecified) |  | inactive |
| 7.54 | CC(C)c1cccc(C(C)C)c1NC(=O)NCC1=CCCc2ccccc21 | -33% |  |
| 7.04 | CC(C)c1cccc(C(C)C)c1NC(=O)NCC(c1ccccc1)(c1ccccc1)c1ccccc1 | -68% |  |
